Results taken from US9888679B2, “Protection of progenitor cells and regulation of their differentiation” (Proteobioactives Pty Ltd, priority 2007, dated 2018).

Assays:
Type in all cases: cell-based
human progenitor cells [1] = test: Proteoglycan biosynthesis (35S-GAG) in 2 day monolayer cultures; settings: monolayers; FIG. 11
Source text: FIG. 11. A bar graph of the concentration dependent effects of Pentosan Polysulfate (PPS), on the biosynthesis of Proteoglycans (PGs) as determined by the incorporation of radioactively labelled sulfate into the sulfated glycosaminoglycans (^35S-GAG) of PGs after 2 day monolayer cultures of human progenitor cells. The data was expressed as ^35S-GAG radioactivity as decays per minute (DPM) normalised to DNA content. *=p<0.05; **=p<0.005; ***=p<0.0005.
(§1) Murine Progenitor cells (cell lines C3H10T1/2 or ATDC5) purchased from RIKEN Cell Bank (Tsukuba, Japan) or human immunoselected Stro-1+ Progenitor cells (Mesoblast Ltd, Melbourne, Australia) were seeded into 50 mL plastic culture flasks containing 1:1 high glucose DMEM/Ham's F-12 medium (Invitrogen) supplemented with 10% FBS (Sigma) and incubated at 37° C., in 5% CO2. After confluence was reached, progenitor cells were released by trypsinization and harvested by centrifugation. Cells were inoculated to 96-well or 24-well plates at a density of 3×10^4 cells or 2×10^5 cells per well. […] The experiments were generally terminated after 48 hours incubation when proteoglycan biosynthesis was determined by measuring the incorporation of ^35SO4 into the glycosaminoglycans (^35S-GAGs) as described below.
The data was expressed as ^35S-GAG radioactivity as decays per minute (DPM) normalised to DNA content. *=p<0.05; **=p<0.005; ***=p<0.0005.

human progenitor cells [2] = test: Type II collagen immunostaining of micromass cultures, 10 days; settings: FIG. 18
Protocol: FIG. 18. A: Bar graph showing the Pentosan Polysulfate (PPS) concentration dependent stimulation of type II collagen production by human progenitor cells in micromass cultures for 10 days as determined by scanning and digital analysis of the immuno stained micromass cultures shown in B. (see text for details).
Micromass cultures of progenitor cells were established in 24-well culture plates at a starting density of 8×10^4 cells/micromass in 1 ml of DMEM (+10% FBS) with/without various concentrations of Pentosan Polysulfate as described above. On Day-5 and Day-10 of culture, media was removed and cultures were fixed with Histochoice MB (Amresco, Solon, Ohio, USA) for 20-30 min at RT. The fixed cultures were washed twice in PBS (5 min each time); […] then washed in PBS for 5 min. […]. After rinsing, first with a gentle stream of PBS, followed by washing 3 times (5 min each time) with PBS, the wells were blocked with […] rinsing with a gentle stream of PBS then 3×washing (5 min each time) with PBS, to each micromass culture was added 200 μl of 1× (BCIP/Buffer+NBT) and the plates incubated in the reaction was stopped when the purple color first became established in the section by washing in running water. Plates and wells were then photographed with a digital camera and the images analysed by using Image J® software (http://rsb.info.nih.gov/ij/) on a personal computer.

[3] = system: murine ATDC5 progenitor cells; test: Proteoglycan biosynthesis (35S-GAG) in monolayer cultures, maintenance or differentiation media
Source text: (§2) FIG. 21. A bar graph of the concentration dependent effects of rhNC4 (batch PBA-1202P) expressed by K. lactis, in the absence (maintenance media, MM) and presence of insulin (10 micrograms/mL) (differentiation media, DM), on the biosynthesis of Proteoglycans (PGs) as determined by the incorporation of radioactively labelled sulfate into the sulfated glycosaminoglycans (^35S-GAG) of PGs after 3 day culture with Murine ATDC5 progenitor cells. The data was expressed as % change relative to control cultures that contained no rhNC4. P<0.05 was statistically significant relative to control cultures.
FIG. 24. A bar graph of the concentration dependent effects of combinations of rhNC4 (batch PBA-1202P) and Pentosan Polysulfate (PPS) on the biosynthesis of 35S-PGs by monolayer cultures of Murine ATDC5 progenitor cells. Data is expressed relative to control (maintenance media, MM) which was taken as 100%.
as §2, with “31.” for “21.”
FIG. 32. A bar graph of the concentration dependent effects of Pentosan Polysulfate (PPS), in the presence of insulin (10 micrograms/mL), on the biosynthesis of Proteoglycans PGs) as determined by the incorporation of radioactively labelled sulfate into the sulfated glycosaminoglycans (^35S-GAG) of PGs after 3 day culture with Murine ATDC5 progenitor cells. The data was expressed as ^35S-GAG radioactivity as counts per minute (CPM) and decays per minute (DPM) relative to control cultures that contained no PPS. P<0.05 was statistically significant relative to control cultures.
as §1, with “CO2.” for “CO2. After confluence was reached, progenitor cells were released by trypsinization and harvested by centrifugation. Cells were inoculated to 96-well or 24-well plates at a density of 3×10^4 cells or 2×10^5 cells per well.”
The data was expressed as % change relative to control cultures that contained no rhNC4. […]

Substance: pentosan polysulfate [PPS]
- chondrogenic effect (proteoglycan synthesis) (human progenitor cells [1]): chondrogenic promoting effect
- Type II Collagen production (human progenitor cells [2]; 0.5-10 μg/ml, 10 days): Increased Type II Collagen production
- type II collagen staining (human progenitor cells [2]; 1-10 micrograms/mL for 10 days): intense type II collagen staining
- concentration giving maximum type II collagen levels (human progenitor cells [2]; 10 day micromass): 5 µg/mL
- PG synthesis ([3]; PPS in the presence of insulin (10 micrograms/mL), 3 day culture, FIG. 32): concentration dependent stimulation of PG synthesis
- biosynthesis of 35S-PGs ([3]; PPS, monolayer, FIG. 24): effect of PPS increases with concentration
